Test results reported in patent publication US20050014762A1, “Combination” (priority 2001, published 2005).
Several values for one entry are separate records, joined by “and”; a condition that tells them apart may be missing. Identical values can stand only once. Like-named read-outs stand apart in the source and are kept apart here.

System: SRS-A-mediated bronchoconstriction after ovalbumin (OVA) challenge in guinea pigs
Assay: SRS-A-mediated (OVA-induced) bronchoconstriction in anaesthetized, mechanically ventilated sensitized guinea pigs
Type: in vivo, guinea pig
Details: Cavia porcellus
Experimental: Male Dunkin Hartley guinea pigs; body weight 200-250 g at sensitization and 350-500 g when performing the experiments. Ovalbumin (OVA) was used as allergen for active sensitization. Therefore, 20 μg OVA together with 20 mg Al(OH)3 suspended in 0.5 ml 0.9% NaCl-solution (=saline) were administered i.p. to each animal on 2 consecutive days. […] Controls received the drug-free methocel-solution 1 h before OVA-challenge as placebo (n=12). OVA-challenge and lung function measurements were performed in anaesthetized and mechanically ventilated animals. […] To enhance the SRS-A-mediated bronchoconstriction, the animals were pretreated with: indomethacin 10 mg/kg i.v. 20 min before OVA-challenge to block the cyclooxygenase pathway and to enhance the production of lipoxygenase-mediators, mainly leukotrienes. […] The time-effect curve for the delta-%-decrease of compliance and conductance was determined up to 12 min post challenge. Blood pressure and heart rate were monitored to control vitality. The area under the time-delta-%-decrease curves (AUC) was determined for each animal. On basis of the AUC-values, the inhibition of the SRS-A-induced decrease of compliance and conductance was calculated in reference to placebo. […] Measured and calculated ED50-values were compared by an unpaired t-test for statistical significant differences.

O=C(Nc1c(Cl)cncc1Cl)c1ccc(OC(F)F)c(OCC2CC2)c1 [ROFLUMILAST, 3-cyclopropylmethoxy-4-difluoromethoxy-N-(3,5-dichloropyrid-4-yl)-benzamide]
ED50 (read-out: ED50, inhibition of decrease of airway compliance): 0.58 mg/kg and 1.45 µmol/kg | ED50 (read-out: ED50, inhibition of decrease of airway conductance): 0.69 mg/kg and 1.73 µmol/kg
